Patent US9035059B2, “Nitrogen-containing condensed heterocyclic compound” (TAISHO PHARMACEUTICAL CO., LTD., priority 2011, dated 2015)

Molecular target: MGAT2 (microsomal fraction of human small intestine) (Homo sapiens (Human), UniProt Q3SYC2)
Assay: Test Example 2: Test of MGAT2 inhibitory action (microsomal fraction of human small intestine, 3H-labeled 2-monooleoyl glycerol)
Assay type: biochemical
Settings: microsomal fraction of human small intestine 5 μg/ml; 4 μM oleoyl-CoA, 1.25 μM 2-monooleoyl glycerol, 0.125 μM 3H-labeled 2-monooleoyl glycerol; room temperature 30 min; read-out: Activity Value [nM] (IC50, concentration at which 50% of the products 3H-labeled dioleoyl glycerol and trioleoyl glycerol was inhibited)
Experimental: An MGAT2 inhibition test for test compounds was conducted in accordance with a partially modified version of the method described in John F. Lockwood et al., Am. J. Physiol. Endocrinol. Metab., 2003, 285, E927.
A 10 mg/mL microsomal fraction of human small intestine (duodenum- and jejunum-derived fraction purchased from Becton Dickinson Japan) was used as an enzyme source.
The test was conducted using a flat-bottom 96-well plate (Corning).
A buffer solution with final concentrations of 5 mM magnesium chloride, 1.25 mg/ml bovine serum albumin and 100 mM Tris-HCl (pH=7.5) was prepared and the microsomal fraction of human small intestine was added thereto to give a final concentration of 5 μg/ml. […] Thereafter, final concentrations of 5 mM magnesium chloride, 1.25 mg/ml bovine serum albumin, 100 mM Tris-HCl (pH=7.5), 4 μM oleoyl-CoA, 1.25 μM 2-monooleoyl glycerol and 0.125 μM ^3H-labeled 2-monooleoyl glycerol (Muromachi Yakuhin Co., Ltd.) were added thereto to give a total volume of 100 μl. This mixture was reacted at room temperature for 30 min.
The reaction was stopped by adding an equal amount of isopropanol to the reaction mixture. The substrate contained in the reaction mixture (^3H-labeled 2-monooleoyl glycerol) and the reaction products (^3H-labeled dioleoyl glycerol and trioleoyl glycerol) were separated by adsorbing them onto an octadecylsilane resin (Wako gel 50C18) (Wako Pure Chemical Industries, Ltd.), removing the substrate by use of 80% isopropanol, and then eluting the reaction products with 100% isopropanol. The amounts of the reaction products were measured with MicroBeta (PerkinElmer Japan).

Sequence of MGAT2 (microsomal fraction of human small intestine) (Q3SYC2 whole entry): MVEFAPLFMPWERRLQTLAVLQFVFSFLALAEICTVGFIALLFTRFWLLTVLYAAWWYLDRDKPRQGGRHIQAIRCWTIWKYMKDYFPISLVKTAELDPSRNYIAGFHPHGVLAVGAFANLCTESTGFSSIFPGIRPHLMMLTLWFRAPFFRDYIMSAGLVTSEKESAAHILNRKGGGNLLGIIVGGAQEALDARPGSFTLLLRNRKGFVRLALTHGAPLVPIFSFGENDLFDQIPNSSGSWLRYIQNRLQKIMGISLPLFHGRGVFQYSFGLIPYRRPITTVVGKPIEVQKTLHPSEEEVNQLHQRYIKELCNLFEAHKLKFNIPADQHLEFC

Row | Compound | IC50
1 | Cc1ccc(-n2cc(CN3CCc4cc(S(=O)(=O)Nc5ccc(CCCC6CCCC6)cc5F)ccc4C3)cn2)cc1 [Working Example 7-76] | 16 nM
2 | Cc1ccc(-n2nc(C)c(CN3CCc4cc(S(=O)(=O)Nc5ccc(CCCC6CCCC6)cc5F)ccc4C3)c2C)cc1 [Working Example 7-80] | 66 nM
3 | Cc1cc(CN2CCc3cc(S(=O)(=O)Nc4ccc(CCCC5CCCC5)cc4F)ccc3C2)c(C)n1-c1cccc(C(F)(F)F)c1 [Working Example 7-81] | 45 nM
4 | Cc1nn(C)c(C)c1CN1CCc2cc(S(=O)(=O)Nc3ccc(CCCC4CCCC4)cc3F)ccc2C1 [Working Example 7-82] | 189 nM
5 | Cc1cc(CN2CCc3cc(S(=O)(=O)Nc4ccc(CCCC5CCCC5)cc4F)ccc3C2)c(C)n1-c1ccncc1 [Working Example 7-88] | 145 nM
6 | CC(C)(C)n1cc(CCN2CCc3cc(S(=O)(=O)Nc4ccc(CCCC5CCCC5)cc4F)ccc3C2)cn1 [Working Example 7-91] | 140 nM
7 | CC(C)(C)c1ccc(CCN2CCc3cc(S(=O)(=O)Nc4ccc(OCCC5CCCC5)cc4F)ccc3C2)cc1 [Working Example 8-5] | 29 nM
8 | CC(C)(C)c1ccc(CCN2CCc3cc(S(=O)(=O)Nc4ccc(OCCCS(=O)(=O)c5ccccc5)cc4F)ccc3C2)cc1 [Working Example 8-6] | 35 nM
9 | CC(C)(C)c1cc(CN2CCc3cc(S(=O)(=O)Nc4ccc(OCCC5CCOCC5)cc4F)ccc3C2)ccn1 [Working Example 8-7] | 235 nM
10 | CC(C)(C)c1ccc(CCN2CCc3cc(S(=O)(=O)Nc4ccc(OCCOCC5CCCCO5)cc4F)ccc3C2)cc1 (stereo not shown) [Working Example 8-8] | 178 nM
11 | CC(C)(C)c1ccc(CCN2CCc3cc(S(=O)(=O)Nc4ccc(OCCOCC5CCCO5)cc4F)ccc3C2)cc1 (stereo not shown) [Working Example 8-9] | 160 nM
12 | CC(C)(C)c1ccc(CCN2CCc3cc(S(=O)(=O)Nc4ccc(OCCC5CCOC5)cc4F)ccc3C2)cc1 (stereo not shown) [Working Example 8-10] | 148 nM
13 | CC(C)(C)c1ccc(CCN2CCc3cc(S(=O)(=O)Nc4ccc(OCC[C@H]5CCOC[C@H]5F)cc4F)ccc3C2)cc1 [Working Example 8-11] | 169 nM
14 | CC(C)(C)c1ccc(CCN2CCc3cc(S(=O)(=O)Nc4ccc(OCCCOCC(F)(F)F)cc4F)ccc3C2)cc1 [Working Example 8-12] | 158 nM
15 | CC(C)(C)c1ccc(CCN2CCc3cc(S(=O)(=O)Nc4ccc(OCCOC5CCCCC5)cc4F)ccc3C2)cc1 [Working Example 8-13] | 137 nM
16 | CC(C)(C)c1ccc(CCN2CCc3cc(S(=O)(=O)Nc4ccc(OCCCOC5CCCC5)cc4F)ccc3C2)cc1 [Working Example 8-14] | 68 nM
17 | CC(C)(C)c1ccc(CCN2CCc3cc(S(=O)(=O)Nc4ccc(OCC[C@H]5CCOC[C@@H]5F)cc4F)ccc3C2)cc1 [Working Example 8-15] | 204 nM
18 | CC(C)(C)c1cnc(CCN2CCc3cc(S(=O)(=O)Nc4ccc(CCCC5CCCC5)cc4F)ccc3C2)cn1 [Working Example 9-23] | 46 nM
19 | O=S(=O)(Nc1ccc(CCCC2CCCC2)cc1F)c1ccc2c(c1)CCN(CCc1ccc(C(F)(F)F)cn1)C2 [Working Example 9-24] | 46 nM
